These results are taken from paper PMC2744931, “Glutamate Uptake Triggers Transporter-Mediated GABA Release from Astrocytes” (PLoS ONE, 2009).

Like-named read-outs stand apart in the source and are kept apart here.

Data set [1] relates to acute rat hippocampal slices. The experiment in a line: [3H]GABA efflux from acute rat hippocampal slices (microvolume superfusion). Format: cell-based. The note with it: for effect on Glu-induced GABA release in hippocampal slices: DL-AP5 50 µM, CNQX 10 µM, (S)-MCPG 500 µM applied as Glu receptor antagonists. Here is the method: Radiolabeling of 400 µm thick acute slices was conducted in 200 µl of ACSF in a glass tube. […] To preferentially label the cytosolic over the vesicular pools, incubation of slices at 30°C lasted for 10 min [54]. Slices were washed with fresh ACSF containing GABA-T inhibitors, thereafter placed in a custom-built closed micro-volume (50 µl) chamber secured in a water bath thermostated at 30°C [55]. […] The superfusate was collected in 0.5 ml fractions. After washing for 10 min, 10 fractions were collected to define the basal release of radioactivity (‘pre-stimulus’). At this point, the hippocampal slice was exposed to 100 µM Glu for a period of 10 min (‘drug application’), followed by further 10 min of washing with ACSF (‘washout’). Radioactivity of each 0.5 ml fraction counted in 3 ml HiSafe 3 scintillation mixture was expressed as the percentage of the actual radioactivity content of the slice (fractional release). Fractional release data from individual slices were normalized to a first order exponential curve (obtained by fitting the pre-stimulus and the last 3 washout values). Normalized percent efflux data from fractions of ‘pre-stimulus’ (1–10 min) versus ‘drug application’ (11–20 min) periods were averaged and compared by statistical analysis.

The next data set relates to GAT-1. Also noted: method as in Borden,L.A. (1996) Neurochem Int. 4: 335–356. The note with it: ref Borden,L.A. (1996) Neurochem Int. 4: 335–356; cited from earlier work.
For the next data set, the system named is BGT. Also noted: method as in Borden,L.A. (1996) Neurochem Int. 4: 335–356. The note with it: ref Borden,L.A. (1996) Neurochem Int. 4: 335–356; cited from earlier work.
For the next data set, the system named is GAT-3. Also noted: method as in Borden,L.A. (1996) Neurochem Int. 4: 335–356. The note with it: ref Borden,L.A. (1996) Neurochem Int. 4: 335–356; cited from earlier work.
Data set [2] relates to GABA transport in rat cerebrocortical NPMV (GAT-2/3). The experiment in a line: [3H]GABA uptake in rat cerebrocortical native plasma membrane vesicles (NPMV) in the presence of 100 µM NNC-711. Format: biochemical. The following applies: for effect on GABA transport in rat cortical NPMV: 10 min preincubation, 100 µM NNC-711 (Figure 1B); for modulation of the effect of Glu on GABA transport / cytosolic GABA level in rat cortical NPMV: 100 µM NNC-711 present. Here is the method:
Cerebral cortices of 4–6 weeks old male Wistar rats (Toxicoop, Hungary) and frozen human brain tissue samples (Hungarian Brain Tissue Bank, Budapest) were used to prepare NPMV fractions, that contain numerous membrane vesicles of different sizes and shapes, a few intact synaptosomes and free mitochondria. […] Afterward, preincubated solution was incubated with [^3H]GABA (10 nM, Amersham) and GABA (90 nM, Sigma) for 1 min. In case of [^3H]β-alanine uptake, incubation solution contained 100 nM [^3H]β-alanine (Amersham) and 900 nM β-alanine (Sigma). After the incubation, samples were immediately filtered through glass fiber filters and washed twice with ice-cold HEPES buffer. The [^3H]GABA level inside the plasma membrane vesicles was determined by liquid scintillation method. Although this method is generally used to measure GABA uptake, we applied it to follow GABA release due to the simplicity and reliability of the assay. We also determined GABA release by preloading [^3H]GABA into NPMV vesicles and measuring the [^3H]GABA level in the intracellular and extracellular milieu. […] Non-specific uptake was determined in the presence of 1 mM guvacine. The radioactivity of samples was counted in HiSafe 3 (Perkin Elmer) scintillation mixture.

For the next data set, the system named is GAT-2. Also noted: method as in Borden,L.A. (1996) Neurochem Int. 4: 335–356. The following applies: ref Borden,L.A. (1996) Neurochem Int. 4: 335–356; cited from earlier work.
The subject of a further data set is rat hippocampus. Nature of the data set: In vivo microdialysis and HPLC amino acid detection in the hippocampus. Here is the method: Male Wistar rats (300–400 g) were anaesthetized with halothane (1% in air) and microdialysis probes were implanted into the ventral hippocampus (A: −5.0, L: 5.0, V: −8.0) as described previously. To minimize tissue damage, the final position of the probes was reached slowly, in not less than 20 min. Perfusion of artificial cerebrospinal fluid, containing 144 mM NaCl, 3 mM KCl, 1 mM MgCl2, 2 mM CaCl2 (pH 7.4), was performed at a rate of 1 µl/min. The dialysate samples during 20 min were stored at −20°C. To establish the background amino acid concentration, each experiment started with the collection of three control samples with <10% variation. NNC-711 was applied bilaterally for 60 min followed by the simultaneous application of t-PDC and NNC-711 for 60 min. Concentration of amino acids was measured by pre-column derivatization of primary amino acids with orthophthalaldehyde (OPA, Sigma). Derivatization was performed at pH 10.4 in the presence of mercaptoethanol. OPA-derivatized amino acids were detected with fluorescence detector excitation wavelength 340 nm and emission wavelength 440 nm. Because of the instability of OPA derivatives, the HPLC technique was automated on an HP 1100 series system. Amino acids were separated on HP Hypersyl ODS reversed-phase columns (200×2.1 mm) filled with 5 µm C-18 spherical packing material. Eluent A was 0.1 M phosphate buffer containing 0.5% (vol/vol) tetrahydrofuran (Merck), pH 5.6, while eluent B contained 70% acetonitrile (Merck) in eluent A, pH 5.6. The gradient profile was: 12% B at 0 min, 23% B at 9 min, 36% B at 18 min, 100% B at 20 min, 100% B at 25 min and 12% B at 30 min. The column equilibration time was 8 min. External standards of 10 µM amino acids were injected after every 20 samples. Chromatograms were evaluated with HP Chem-Station software. Concentration of GABA measured in dialysate samples collected during drug applications were related to averaged GABA concentration of control samples collected for an hour prior to drug application and were given as percent changes.

The next data set deals with hippocampus. The following applies: cited from earlier work.
Data set [3] deals with acute rat hippocampal slices. Nature of the data set: [3H]GABA efflux from acute rat hippocampal slices (microvolume superfusion). Format: cell-based. The note with it: for alteration of [GABA]o during blockade of GAT-2/3: no exogenous Glu, n = 5.
[4] abbreviates: GABA transport in the presence of 100 µM NNC-711, present study, read-out: IC50 Rat cerebrocortical NPMV.
[5] abbreviates: rat cortical NPMV, in the presence of NNC-711, read-out: IC50, effect on GABA transport.
The mark [6] stands for this setting: 100 µM SNAP-5114, nominally Mg2+-free ACSF.

As for “6-cyano-7-nitroquinoxaline-2,3-dione [CNQX]”, the “effect on Glu-induced GABA release in hippocampal slices” value (“effect on Glu-induced GABA release” for short) in data set [1] is “partially inhibited”.
`NCCC(=O)O` [β-alanine]: the half-maximal inhibitory concentration (IC50) with GAT-1 is 2920 µM; in the data set on BGT, 1100 µM; in the data set on GAT-3, 110 µM; in data set [2] (setting [4]), 26 ± 4 µM; with GAT-2, 66 µM.
Consider `[Cd+2]` [Cd^2+], for which, in data set [1] (Glu-induced release in the presence of 50 µM Cd2+ salt in the superfusion, n = 3), the “elevation of [GABA]o ([3H]GABA efflux)” value is given as 143±10 % of pre-stimulus control.
For `O=C(O)C1=CCCN(CCON=C(c2ccccc2)c2ccccc2)C1` [NNC-711, 1,2,5,6-tetrahydro-1-[2-[[(diphenylmethylene)amino]oxy]ethyl]-3-pyridinecarboxylic acid], the “[Arginine]o in the rat hippocampus in vivo” value in the data set with rat hippocampus (control for non-specific release, n = 10) is listed as 100±25 % of control. Further, the “[GABA]o in the rat hippocampus in vivo” value in the data set on rat hippocampus (microdialysis application, t-PDC applied together with NNC-711, n = 10) was 160±18 % of control. For the same molecule, the “reduction of the [3H]GABA uptake” value in data set [2] (100 µM NNC-711, NPMV fractions, n = 51) came out at 86±3%.
With `N[C@H](CO)C(=O)O` [D-Ser], the IC50 in [2] (setting [5]) was over 1000 µM.
As to `C[C@@](N)(C(=O)O)c1ccc(C(=O)O)cc1` [(S)-MCPG, (S)-α-methyl-4-carboxyphenylglycine], in data set [1], the “effect on Glu-induced GABA release” value is given as “partially inhibited”.
With `N[C@H](CC(=O)O)C(=O)O` [D-Asp], in data set [2], the “effect on GABA transport in rat cortical NPMV” value (shortened to “effect on GABA transport”) is listed as “able to affect GABA transport”.
Regarding `CC(C)C[C@@H](N)C(=O)O` [D-Leu], in [2] (setting [5]), the IC50 was over 1000 µM.
`NCCc1ccc(O)c(O)c1` [dopamine]: in [2] (setting [5]), the half-inhibitory concentration (IC50) was over 1000 µM.
As for `O=C(O)CCC(=O)O` [succinate], the half-inhibitory concentration (IC50) in [2] (read-out: IC50, effect on GABA transport) was over 1000 µM.
`N[C@@H](CO)C(=O)O` [L-Ser]: the concentration for half-maximal inhibition (IC50) in [2] (setting [5]) was over 1000 µM.
As to `N[C@@H](CC(=O)O)C(=O)O` [L-Asp], the “effect on GABA transport” value in data set [2] is “able to affect GABA transport”.
As for `O=C(O)C1CCCNC1` (centres unmarked) [Nipecotic acid], the IC50 in data set [2] (setting [4]) was 28 ± 0.5 µM.
Regarding `N[C@H](C(=O)O)[C@H](OCc1ccccc1)C(=O)O` (racemic) [TBOA, DL-threo-β-benzyloxyaspartic acid], the “elevation of [GABA]o ([3H]GABA efflux)” value in [1] (Glu-induced release in the presence of 100 µM TBOA, n = 4) is 123±10 % of pre-stimulus control; in data set [1] (Glu-induced release in the presence of 1000 µM TBOA, n = 4), 109±1 % of pre-stimulus control. Also, in the data set with hippocampus, the “neuronal damage after in vivo administration in the hippocampus” value was “induce neuronal damage in the CA1 and the dentate gyrus”. Further, in data set [2], the “modulation of the effect of Glu on GABA transport / cytosolic GABA level in rat cortical NPMV” value was “further reduced”.
Take `NCCc1c[nH]c2ccc(O)cc12` [serotonin]: in data set [2] (setting [5]), the IC50 was over 1000 µM.
For the molecule `NC[C@H](CC(=O)O)c1ccc(Cl)cc1` [(R)-baclofen], the “modulation of the effect of Glu on GABA transport / cytosolic GABA level in rat cortical NPMV” value in data set [2] is on record as “did not modulate the effect of Glu on the cytosolic GABA level”.
Take `O=C(O)C1CCCN(CCC=C(c2ccccc2)c2ccccc2)C1` (centres unmarked) [SKF89976A]: the IC50 in the data set with GAT-1 was 0.64 µM; with BGT it was 7210 µM; in the data set with GAT-3, 4390 µM; in data set [2] (setting [4]), 372 ± 9 µM; with GAT-2 it was 550 µM.
On to `N[C@@H](CS(=O)(=O)O)C(=O)O` [cysteic acid], for which the “effect on GABA transport” value in [2] is “able to affect GABA transport”.
`CC(C)C[C@H](N)C(=O)O` [L-Leu]: in data set [2] (setting [5]), the IC50 is over 1000 µM.
Consider `CC(C)[C@H]1CN[C@H](C(=O)O)[C@H]1CC(=O)O` [DHK, dihydrokainic acid], for which the “modulation of the effect of Glu on GABA transport / cytosolic GABA level in rat cortical NPMV” value in data set [2] is recorded as “significantly reduced”.
Turning to `NCCS(=O)(=O)O` [Taurine], the 50% inhibitory concentration (IC50) was over 1000 µM in the data set on GAT-1; over 1000 µM in the data set with BGT; 2860 µM with GAT-3; 400 ± 7 µM in [2] (setting [4]); 1270 µM with GAT-2.
penicillin: the 50% inhibitory concentration (IC50) in data set [2] (setting [5]) is over 1000 µM.
For the molecule `C[N+](C)(C)CC(=O)O` [Betaine], the half-inhibitory concentration (IC50) is over 1000 µM in the data set with GAT-1; 173 µM in the data set with BGT; over 1000 µM in the data set on GAT-3; over 1000 µM in data set [2] (setting [4]); over 1000 µM with GAT-2.
`NCCS(=O)O` [Hypotaurine]: the half-inhibitory concentration (IC50) was 1010 µM with GAT-1; 536 µM in the data set with BGT; 73 µM in the data set on GAT-3; 20 ± 0.4 µM in data set [2] (setting [4]); 52 µM with GAT-2.
Take `C[N+]1(C)CCc2cc3c(cc2[C@H]1[C@@H]1OC(=O)c2c1ccc1c2OCO1)OCO3.[I-]` [(1S,9R)-bicuculline methiodide]: the “modulation of the effect of Glu on GABA transport / cytosolic GABA level in rat cortical NPMV” value in [2] is on record as “did not modulate the effect of Glu on the cytosolic GABA level”.
As to `NC(CCCP(=O)(O)O)C(=O)O` (racemic) [DL-AP5, DL-2-amino-5-phosphonopentanoic acid], the “effect on Glu-induced GABA release” value in data set [1] is “partially inhibited”.
As to `N[C@H](CCC(=O)O)C(=O)O` [D-Glu], in data set [2], the “effect on GABA transport” value is given as “able to affect GABA transport”.
For the molecule `COc1ccc(C(OCCN2CCC[C@H](C(=O)O)C2)(c2ccc(OC)cc2)c2ccc(OC)cc2)cc1` [SNAP-5114, 1-[2-[tris(4-methoxyphenyl)methoxy]ethyl]-(S)-3-piperidinecarboxylic acid], in [1] (Glu-induced release in the presence of SNAP-5114, n = 4), the “elevation of [GABA]o ([3H]GABA efflux)” value is recorded as 109±4 % of pre-stimulus control. In addition, in data set [3] (setting [6]), the “reduction of [3H]GABA release compared to the pre-application period” value was 10% and the “alteration of [GABA]o during blockade of GAT-2/3” value is 90±4 % of pre-application control. In addition, the “alteration of [GABA]o during blockade of GAT-2/3” value in [3] (100 µM SNAP-5114, normal ACSF) is given as 100±6 % of pre-application control.
